Here are results for four compounds from article PMC11822212, “High-throughput screening identifies Aurora kinase B as a critical therapeutic target for Merkel cell carcinoma” (Nature Communications, 2025).

Assay [1] relates to NIH-3T3 cells. Put plainly: qHTS cell viability (CellTiter-Glo, 72 h; primary screen), control cell line. In kind it is cell-based, mouse. Background: qHTS replaces the single test concentration by a dilution series.
Assay [2] concerns UISO cells (VN-MCC). The assay can be described thus: qHTS cell viability (CellTiter-Glo, 72 h; primary and follow-up small molecule screen). In kind it is cell-based, human.
Assay [3] concerns WAGA cells (VP-MCC). The description is as above. In kind it is cell-based, human.
For assay [4], the system named is MKL-1 cells (VP-MCC). The description is as above. In kind it is cell-based, human.
In assay [5] the test system is control cell lines (HACAT, HEK293T, CRL-7250, NIH-3T3). Put plainly: qHTS cell viability, control cell lines as a group (mean AUC, Control.avg). The class given is cell-based.
Assay [6] concerns VP-MCC cell lines (WAGA, MKL-1, MKL-2). The assay can be described thus: qHTS cell viability, VP-MCC cell lines as a group (mean AUC, VP.MCC.avg). The class given is cell-based, human.
Assay [7] has as its system MCC13 cells (VN-MCC). The assay can be described thus: qHTS cell viability (CellTiter-Glo, 72 h; primary and follow-up small molecule screen). The class given is cell-based, human.
Assay [8] has as its system MKL-2 cells (VP-MCC). Described as above. The class given is cell-based, human.
For assay [9], the system named is MCC cell lines (WAGA, MKL-1, MKL-2, MCC13, MCC26, UISO). Put plainly: qHTS cell viability, all six MCC cell lines as a group (mean AUC, MCC.avg). In kind it is cell-based, human.
The test system of assay [10] is VN-MCC cell lines (MCC13, MCC26, UISO). The assay can be described thus: qHTS cell viability, VN-MCC cell lines as a group (mean AUC, VN.MCC.avg). The class given is cell-based, human.
For assay [11], the system named is HEK293T cells. Put plainly: qHTS cell viability (CellTiter-Glo, 72 h; primary screen), control cell line. The class given is cell-based, human.
In assay [12] the test system is six MCC cell lines and four control cell lines. The assay can be described thus: qHTS cell viability, all 10 cell lines screened. The class given is cell-based.
For assay [13], the system named is CRL-7250 cells. The assay can be described thus: qHTS cell viability (CellTiter-Glo, 72 h; primary screen), control cell line. The class given is cell-based.
Assay [14] has as its system MCC26 cells (VN-MCC). The assay can be described thus: qHTS cell viability (CellTiter-Glo, 72 h; primary and follow-up small molecule screen). The class given is cell-based, human.
Assay [15] relates to HACAT cells. Put plainly: qHTS cell viability (CellTiter-Glo, 72 h; primary screen), control cell line. In kind it is cell-based, human.
[16] abbreviates: NPC library, 8-point DRC, control cell line.
Where [17] appears, read: NPC library, 8-point DRC, area under dose-response curve.
Where [18] appears, read: NPC library, mean AUC of control cell lines.
The mark [19] stands for this setting: NPC library, mean AUC of VP-MCC cell lines.
The mark [20] stands for this setting: NPC library, mean AUC of six MCC cell lines.
[21] abbreviates: NPC library, mean AUC of VN-MCC cell lines.
[22] abbreviates: MIPE library, 11-point DRC, control cell line, sheet S2E.
Setting [23] is: MIPE library, 11-point DRC, sheet S2E.

Where a name gives a salt, the structure may show the parent alone. Read-outs that look alike come from different tables or passages of the source.

In the case of `CNC(=O)[C@H](CC1=CN=C2C=CCC=C12)NC(=O)[C@@H](CC(=O)NO)CC(C)C` [GM-6001], the NIH3T3_AUC in assay [1] stood at 471.496. In assay [2], this compound showed a UISO_AUC of 484.498. This compound had a WAGA_AUC in assay [3] of 319.008. The compound also showed an MKL1_AUC in [4] of 284.283. Besides, in assay [5], the Control_Avg_AUC was determined as 469.151. Also, in assay [6], the Control-VP-MCC is on record as 170.899 and the VP-MCC_Avg_AUC was determined as 298.252. Moreover, the MCC13_AUC in assay [7] came out at 475.165. Besides, in assay [8], the MKL2_AUC is listed as 291.464. Also, the MCC_Avg_AUC in assay [9] came to 388.271. In [10], this compound displayed a Control-VN-MCC of -9.139 and a VN-MCC_Avg_AUC of 478.29. In assay [11], the HEK293T_AUC is on record as 473.463. The same compound showed a Control-MCC in assay [12] of 80.8804. Further, the CRL7250_AUC in assay [13] is 472.869. The same compound displayed an MCC26_AUC in [14] of 475.207. The compound further showed an HACAT_AUC in assay [15] of 458.777.
On to `COc1ccc(CCN(C)CCCC(C#N)(c2cc(OC)c(OC)c(OC)c2)C(C)C)cc1OC` (stereo not drawn) [Gallopamil hydrochloride], for which the NIH3T3_AUC in assay [1] (setting [16]) was determined as 476.798. This compound also gave a UISO_AUC in [2] (setting [17]) of 431.729. The WAGA_AUC in [3] (setting [17]) is reported as 444.909. In assay [4] (setting [17]), this compound showed an MKL1_AUC of 429.324. This compound showed a Control_Avg_AUC in assay [5] (setting [18]) of 479.21. Further, the Control-VP-MCC in [6] (NPC library, Control AUC minus VP-MCC AUC (therapeutic window)) stood at 35.3303. The compound further registered a VP-MCC_Avg_AUC in [6] (setting [19]) of 443.879. For the same compound, the MCC13_AUC in [7] (setting [17]) amounted to 438.844. Also, the MKL2_AUC in assay [8] (setting [17]) is 457.405. In addition, the MCC_Avg_AUC in assay [9] (setting [20]) turned out to be 434.143. For the same compound, the Control-VN-MCC in assay [10] (NPC library, Control AUC minus VN-MCC AUC (therapeutic window)) is recorded as 54.804. Moreover, the VN-MCC_Avg_AUC in [10] (setting [21]) was determined as 424.406. In assay [11] (setting [16]), the HEK293T_AUC stood at 464.897. Besides, in [12] (NPC library, Control AUC minus MCC AUC (therapeutic window)), the Control-MCC is recorded as 45.0671. Further, in assay [13] (setting [16]), the CRL7250_AUC is recorded as 487.096. The same compound yielded an MCC26_AUC in [14] (setting [17]) of 402.644. In [15] (setting [16]), the HACAT_AUC amounted to 488.048.
For the compound `C=CC(=O)Nc1cccc(Nc2nc(NC3CCC(N(C)C)CC3)nc3c2ncn3C(C)C)c1` (stereo not drawn) [HMSL10084], the NIH3T3_AUC in assay [1] (setting [22]) is 437.409. In addition, the UISO_AUC in [2] (setting [23]) was 276.887. Also, the WAGA_AUC in assay [3] (setting [23]) was 181.546. Besides, the MKL1_AUC in [4] (setting [23]) is reported as 144.905. The same compound had a Control_Avg_AUC in assay [5] (MIPE library, mean AUC of control cell lines, sheet S2E) of 352.686. The same compound came in with a Control-VP-MCC in assay [6] (MIPE library, Control AUC minus VP-MCC AUC (therapeutic window), sheet S2E) of 174.338. The same compound had a VP-MCC_Avg_AUC in assay [6] (MIPE library, mean AUC of VP-MCC cell lines, sheet S2E) of 178.348. In [7] (setting [23]), this compound gave an MCC13_AUC of 424.628. In addition, the MKL2_AUC in [8] (setting [23]) is given as 208.594. The same compound returned an MCC_Avg_AUC in [9] (MIPE library, mean AUC of six MCC cell lines, sheet S2E) of 269.649. Further, in assay [10] (MIPE library, Control AUC minus VN-MCC AUC (therapeutic window), sheet S2E), the Control-VN-MCC is -8.265. In addition, the VN-MCC_Avg_AUC in assay [10] (MIPE library, mean AUC of VN-MCC cell lines, sheet S2E) is reported as 360.951. Moreover, in assay [11] (setting [22]), the HEK293T_AUC came to 317.706. This compound registered a Control-MCC in [12] (MIPE library, Control AUC minus MCC AUC (therapeutic window), sheet S2E) of 83.0363. Also, in assay [13] (setting [22]), the CRL7250_AUC is reported as 274.567. The compound also showed an MCC26_AUC in assay [14] (setting [23]) of 381.337. In assay [15] (setting [22]), this compound came in with an HACAT_AUC of 381.06.
Regarding `Oc1ccc(O)cc1` [Hydroquinone], the NIH3T3_AUC is listed as 488.45 in assay [1] (NPC library, qHTS dose-response AUC, NIH3T3 control) and 488.45 in [1] (area under the dose-response curve, NIH3T3 control cells, AUC<450 = reduced viability). Besides, the UISO_AUC in assay [2] (NPC library, qHTS dose-response AUC, UISO) was 450.538; in assay [2] (area under the dose-response curve, UISO cells, AUC<450 = reduced viability), 450.538. In addition, the WAGA_AUC in [3] (NPC library, qHTS dose-response AUC, WAGA) worked out at 370.144; in assay [3] (area under the dose-response curve, WAGA cells, AUC<450 = reduced viability), 370.144. Also, the MKL1_AUC was 415.173 in [4] (NPC library, qHTS dose-response AUC, MKL1) and 415.173 in assay [4] (area under the dose-response curve, MKL-1 cells, AUC<450 = reduced viability). The Control_Avg_AUC in assay [5] (setting [18]) came out at 487.218. Also, in assay [6] (setting [19]), the VP-MCC_Avg_AUC came out at 395.258. The same compound registered a Control-VP-MCC in assay [6] (NPC library, therapeutic window: Control avg AUC minus VP-MCC avg AUC) of 91.96. For the same compound, the MCC13_AUC in assay [7] (NPC library, qHTS dose-response AUC, MCC13) worked out at 503.441; in assay [7] (area under the dose-response curve, MCC13 cells, AUC<450 = reduced viability) it was 503.441. Further, the MKL2_AUC amounted to 400.457 in assay [8] (NPC library, qHTS dose-response AUC, MKL2) and 400.457 in [8] (area under the dose-response curve, MKL-2 cells, AUC<450 = reduced viability). The compound further yielded an MCC_Avg_AUC in assay [9] (setting [20]) of 442.057. Moreover, in [10] (setting [21]), the VN-MCC_Avg_AUC came to 488.855. Besides, the Control-VN-MCC in assay [10] (NPC library, therapeutic window: Control avg AUC minus VN-MCC avg AUC) is recorded as -1.637. Also, the HEK293T_AUC in assay [11] (NPC library, qHTS dose-response AUC, HEK293T control) turned out to be 480.593; in assay [11] (area under the dose-response curve, HEK293T control cells, AUC<450 = reduced viability), 480.593. Also, in assay [12] (NPC library, therapeutic window: Control avg AUC minus MCC avg AUC), the Control-MCC stood at 45.1616. Further, the CRL7250_AUC in [13] (NPC library, qHTS dose-response AUC, CRL7250 control) is 487.877; in assay [13] (area under the dose-response curve, CRL7250 control cells, AUC<450 = reduced viability) it was 487.877. In addition, the MCC26_AUC was determined as 512.585 in assay [14] (NPC library, qHTS dose-response AUC, MCC26) and 512.585 in assay [14] (area under the dose-response curve, MCC26 cells, AUC<450 = reduced viability). The HACAT_AUC in [15] (NPC library, qHTS dose-response AUC, HACAT control) was determined as 491.952; in [15] (area under the dose-response curve, HACAT control cells, AUC<450 = reduced viability) it was 491.952.
